{"source": "paper PMC3129046", "about": "“Engineering Laccases: In Search for Novel Catalysts” (Current Genomics, 2011)", "target": "T1, LAC3 (Trametes sp. C30, UniProt Q6TH77)", "T1 construct": "lac3 cDNA in pYES-DEST52 under GAL1 promoter, secreted by Saccharomyces cerevisiae W303-1A; 501 aa, calc", "T1 sequence (Q6TH77 24-524)": "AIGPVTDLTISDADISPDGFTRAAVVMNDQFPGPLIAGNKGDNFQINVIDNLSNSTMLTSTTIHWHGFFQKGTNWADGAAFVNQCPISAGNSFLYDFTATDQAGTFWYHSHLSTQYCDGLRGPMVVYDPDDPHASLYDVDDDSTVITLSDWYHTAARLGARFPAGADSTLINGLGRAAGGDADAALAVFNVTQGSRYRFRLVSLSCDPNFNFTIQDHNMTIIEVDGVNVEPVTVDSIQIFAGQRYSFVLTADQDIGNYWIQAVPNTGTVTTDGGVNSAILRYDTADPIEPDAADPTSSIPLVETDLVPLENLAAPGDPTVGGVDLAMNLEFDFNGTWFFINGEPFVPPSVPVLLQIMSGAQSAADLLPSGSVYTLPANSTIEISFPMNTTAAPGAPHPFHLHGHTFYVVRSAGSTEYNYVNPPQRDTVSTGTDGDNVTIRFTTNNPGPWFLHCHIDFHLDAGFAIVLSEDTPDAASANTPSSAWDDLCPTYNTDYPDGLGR", "assay": "brown halo on agar plate", "type": "cell-based", "details": "secreted recombinant enzyme, selective medium SGal URA"}
{"molecule": "COc1ccccc1O", "note": "[2-methoxyphenol]", "values": [{"measurement": "brown halo on agar plate", "result": "brown coloration resulting from the oxidation of the substrate 2-methoxyphenol by laccases"}]}
